Consider four compounds from publication PMC11069232, “NB compounds are potent and efficacious FOXM1 inhibitors in high-grade serous ovarian cancer cells” (Journal of Ovarian Research, 2024).

What all share (format): cell-based, human
One test deals with OVCAR4 cells. As to the kind of experiment: CyQuant cell viability assay, OVCAR4. The following applies: for Efficacy: % loss of cell viability at maximum tested concentration. The procedure:
(§1) Cells were seeded into 96-well plates and treated with serial dilutions with the designated compounds for 72 h. Medium was then removed from the wells, and the cells were frozen at -80 °C for storage. After thawing, cell viability was analyzed using the CyQUANT™ Cell Proliferation Assay for cells in culture (Invitrogen, ThermoFisher Scientific, Waltham, MA, USA), according to manufacturer’s instructions. The CyQuant assay utilizes a DNA binding fluorescent dye, and the signal is proportional to the number of live cells, which thus reflects the effect of drug treatment on both cell proliferation and cytotoxicity. To integrate these two measures (proliferation and cytotoxicity) into one simple term, we refer to CyQuant data as a measure of cell viability. Fluorescence intensity was measured using POLARstar OPTIMA microplate multi-detection plate reader (BMG LabTech, Cary, NC, USA) with settings specified by the manufacturer’s instructions.

The next test concerns CAOV3 cells. Briefly: CyQuant cell viability assay, CAOV3. The following applies: for Efficacy: % loss of cell viability at maximum tested concentration. The procedure:
as §1

The test system of a further test is HGSOC cells. Briefly: CyQuant cell viability assay, HGSOC cells (CAOV3 and OVCAR4), summary in words. The conditions noted are these: summary of Table 3. The protocol: as §1
We investigated the effect of eight previously reported FOXM1 inhibitors on HGSOC cell viability. We utilized CAOV3 and OVCAR4 cells, which are validated to model HGSOC both in vitro and in vivo [38, 39], and measured the effect on cell viability using CyQuant assays. The data are summarized in Table 3 (drugs ordered alphabetically).

The test system of another test is FT282-C11 cells. As to the kind of experiment: CyQuant cell viability assay, FT282-C11 (immortalized FTE control). The following applies: for Efficacy: % loss of cell viability at maximum tested concentration; for Fold HGSOC cell selectivity: IC50 in FT282-C11 divided by the averaged IC50 values of CAOV3 and OVCAR4 cells. The protocol: as §1
To investigate the cancer cell selectivity of FOXM1 inhibitors, we utilized the immortalized (FTE) cell line FT282-C11 as non-malignant, cell of origin matched control. […] We tested a sub-set of FOXM1 inhibitors, including the three NB compounds and the two most widely used FOXM1 inhibitors, thiostrepton and FDI-6.

Setting [1] is: Homo sapiens, OVCAR-4, 72 h, read-out: Potency [IC50 (µM)].
Setting [2] is: Homo sapiens, OVCAR-4, read-out: % Efficacy (maximum dose).
[3] abbreviates: Homo sapiens, Caov-3, 72 h, read-out: Potency [IC50 (µM)].
The mark [4] stands for this setting: Homo sapiens, Caov-3, read-out: % Efficacy (maximum dose).

What is called IC50 is the concentration needed to halve the response being measured.

Read-outs that look alike come from different tables or passages of the source.

On to `c1ccc(Nc2cc3ccccc3c3ccccc23)cc1` [N-phenylphenanthren-9-amine (NP9), N-phenylphenanthren-9-amine], for which the IC50 with OVCAR4 cells (setting [1]) turned out to be 39 µM; with CAOV3 cells (setting [3]), 23 µM. The Emax was determined as 100% in the test on OVCAR4 cells (setting [2]) and 85% with CAOV3 cells (setting [4]). The “potency and efficacy on HGSOC cell viability, in words” value (shortened to “potency and efficacy”) in the test with HGSOC cells is recorded as “low potency”.

`Nc1c(C(=O)Nc2ccc(F)cc2)sc2nc(-c3cccs3)cc(C(F)(F)F)c12` [FDI-6]: the Efficacy was found to be 76% in the test with FT282-C11 cells (FT282-C11, Table 4); 61% in the test with OVCAR4 cells (OVCAR4, Table 4); 61% with CAOV3 cells (CAOV3, Table 4). Further, the IC50 was 11000 nM in the test on FT282-C11 cells (FT282-C11, CyQuant, Table 4, read-out: IC50); 4.7 µM in the test on OVCAR4 cells (OVCAR4, CyQuant, Table 4, read-out: IC50); 4.7 µM in the test on OVCAR4 cells (OVCAR4, cell viability, CyQuant, 72 h, Table 3, read-out: Potency [IC50 (µM)]); 9.1 µM in the test with CAOV3 cells (CAOV3, CyQuant, Table 4, read-out: IC50); 9.1 µM in the test with CAOV3 cells (CAOV3, cell viability, CyQuant, 72 h, Table 3, read-out: Potency [IC50 (µM)]). Besides, in the test with FT282-C11 cells, the “Fold HGSOC cell selectivity” value is reported as 1.6. Further, the “% Efficacy (maximum dose)” value in the test with OVCAR4 cells (OVCAR4, % loss of cell viability at the maximum tested drug concentration (printed in parentheses in the cell), Table 3) is 61% (20 μM); in the test on CAOV3 cells (CAOV3, % loss of cell viability at the maximum tested drug concentration (printed in parentheses in the cell), Table 3), 61% (20 μM). Moreover, in the test on HGSOC cells, the “potency and efficacy” value is reported as “low potency”.

Take `C=C(NC(=O)C(=C)NC(=O)c1csc(C2=N[C@@H]3c4csc(n4)[C@H]4NC(=O)c5csc(n5)[C@H]([C@](C)(O)[C@@H](C)O)NC(=O)[C@H]5CSC(=N5)/C(=C/C)NC(=O)[C@H]([C@@H](C)O)NC(=O)c5csc(n5)[C@]3(CC2)NC(=O)[C@H](C)NC(=O)C(=C)NC(=O)[C@H](C)NC(=O)[C@H]([C@@H](C)CC)N[C@@H]2C=Cc3c([C@H](C)O)cc(nc3[C@H]2O)C(=O)O[C@@H]4C)n1)C(N)=O` [Thiostrepton]: the Efficacy with FT282-C11 cells (FT282-C11, Table 4) is listed as 100%; in the test with OVCAR4 cells (OVCAR4, Table 4) it was 99%; with CAOV3 cells (CAOV3, Table 4) it was 93%. For the same compound, the IC50 was 730 nM in the test on FT282-C11 cells (Homo sapiens); 0.98 µM with OVCAR4 cells (Homo sapiens, OVCAR-4); 0.98 µM in the test on OVCAR4 cells (setting [1]); 0.62 µM with CAOV3 cells (Homo sapiens, Caov-3); 0.62 µM in the test with CAOV3 cells (setting [3]). Moreover, in the test with FT282-C11 cells, the “Fold HGSOC cell selectivity” value is given as 0.91. The Emax with OVCAR4 cells (setting [2]) amounted to 99%; in the test on CAOV3 cells (setting [4]), 93%. In the test on HGSOC cells, the “potency and efficacy” value is “high potency and efficacy”.

For `CC[C@@]1([C@@H]2O[C@@H]([C@H]3O[C@@](O)(CO)[C@H](C)C[C@@H]3C)C[C@@H]2C)CC[C@H]([C@]2(C)CC[C@]3(C[C@H](O)[C@@H](C)[C@@H]([C@@H](C)[C@@H](OC)[C@H](C)C(=O)O)O3)O2)O1` [Monensin, monensin], the Emax with OVCAR4 cells (Homo sapiens, OVCAR-4, OVCAR4, % loss of cell viability at the maximum tested drug concentration (printed in parentheses in the cell), Table 3, read-out: % Efficacy (maximum dose)) turned out to be 52%; in the test on CAOV3 cells (Homo sapiens, Caov-3, CAOV3, % loss of cell viability at the maximum tested drug concentration (printed in parentheses in the cell), Table 3, read-out: % Efficacy (maximum dose)), 100%. Moreover, the IC50 with OVCAR4 cells (Homo sapiens, OVCAR-4, OVCAR4, cell viability, CyQuant, 72 h, Table 3, read-out: Potency [IC50 (µM)]) stood at 0.024 µM; in the test on CAOV3 cells (Homo sapiens, Caov-3, CAOV3, cell viability, CyQuant, 72 h, Table 3, read-out: Potency [IC50 (µM)]), 0.1 µM. Besides, the “potency and efficacy” value in the test with HGSOC cells is “high potency but low efficacy in one cell line (OVCAR4)”.
